Source: ChEMBL document CHEMBL1142332, “N-(3-(phenylcarbamoyl)arylpyrimidine)-5-carboxamides as potent and selective inhibitors of Lck: structure, synthesis and SAR” (Bioorg Med Chem Lett, 2008)
pIC50: −log10 of the molar value.

Columns and labels:
Angiopoietin-1 receptor = Angiopoietin-1 receptor (Homo sapiens, UniProt Q02763); assay: Inhibition of Tie2
[1] = target: T1, Tyrosine-protein kinase JAK3 (Homo sapiens, UniProt P52333); assay: Inhibition of Jak3
T1 sequence (P52333 whole entry): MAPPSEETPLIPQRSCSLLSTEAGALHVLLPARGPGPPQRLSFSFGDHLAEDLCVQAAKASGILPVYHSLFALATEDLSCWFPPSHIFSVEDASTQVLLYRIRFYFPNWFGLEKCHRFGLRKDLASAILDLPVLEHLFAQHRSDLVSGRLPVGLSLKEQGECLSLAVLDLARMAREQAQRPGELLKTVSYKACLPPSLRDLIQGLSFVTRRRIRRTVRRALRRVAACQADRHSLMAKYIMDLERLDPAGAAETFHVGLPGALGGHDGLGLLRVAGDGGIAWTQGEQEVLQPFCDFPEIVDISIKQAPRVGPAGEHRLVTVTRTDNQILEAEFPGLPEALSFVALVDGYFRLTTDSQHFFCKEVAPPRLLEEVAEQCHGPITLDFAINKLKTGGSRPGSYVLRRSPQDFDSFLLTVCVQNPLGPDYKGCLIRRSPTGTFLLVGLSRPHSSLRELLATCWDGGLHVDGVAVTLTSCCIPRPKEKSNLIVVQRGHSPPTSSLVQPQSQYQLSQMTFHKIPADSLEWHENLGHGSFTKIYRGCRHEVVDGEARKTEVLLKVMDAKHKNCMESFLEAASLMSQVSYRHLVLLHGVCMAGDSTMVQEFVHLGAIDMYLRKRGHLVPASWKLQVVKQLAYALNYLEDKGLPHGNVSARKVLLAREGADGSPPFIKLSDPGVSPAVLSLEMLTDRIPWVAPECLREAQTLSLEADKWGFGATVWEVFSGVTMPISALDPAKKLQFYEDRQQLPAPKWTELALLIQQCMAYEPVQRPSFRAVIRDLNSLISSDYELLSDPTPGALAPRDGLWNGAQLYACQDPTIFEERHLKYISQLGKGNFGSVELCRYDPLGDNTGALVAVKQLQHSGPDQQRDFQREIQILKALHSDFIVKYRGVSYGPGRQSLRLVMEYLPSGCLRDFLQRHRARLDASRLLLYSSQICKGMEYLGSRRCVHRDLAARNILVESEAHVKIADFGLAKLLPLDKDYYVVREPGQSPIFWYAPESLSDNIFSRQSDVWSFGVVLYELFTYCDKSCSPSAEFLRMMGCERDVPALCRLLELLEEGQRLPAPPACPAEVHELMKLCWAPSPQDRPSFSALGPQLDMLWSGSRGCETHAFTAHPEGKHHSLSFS

[2] = target: Tyrosine-protein kinase Lck (Homo sapiens, UniProt P06239); assay: Inhibition of Lck by HTRF assay
[3] = target: Mitogen-activated protein kinase 14 (Homo sapiens, UniProt Q16539); assay: Inhibition of p38alpha
[4] = target: Vascular endothelial growth factor receptor 2 (Homo sapiens, UniProt P35968); assay: Inhibition of KDR
T-cell = assay: Inhibition of T cell activation in human mixed lymphocyte reaction; format: functional, cell-based

Tyrosine-protein kinase Lck, sequence (P06239 whole entry): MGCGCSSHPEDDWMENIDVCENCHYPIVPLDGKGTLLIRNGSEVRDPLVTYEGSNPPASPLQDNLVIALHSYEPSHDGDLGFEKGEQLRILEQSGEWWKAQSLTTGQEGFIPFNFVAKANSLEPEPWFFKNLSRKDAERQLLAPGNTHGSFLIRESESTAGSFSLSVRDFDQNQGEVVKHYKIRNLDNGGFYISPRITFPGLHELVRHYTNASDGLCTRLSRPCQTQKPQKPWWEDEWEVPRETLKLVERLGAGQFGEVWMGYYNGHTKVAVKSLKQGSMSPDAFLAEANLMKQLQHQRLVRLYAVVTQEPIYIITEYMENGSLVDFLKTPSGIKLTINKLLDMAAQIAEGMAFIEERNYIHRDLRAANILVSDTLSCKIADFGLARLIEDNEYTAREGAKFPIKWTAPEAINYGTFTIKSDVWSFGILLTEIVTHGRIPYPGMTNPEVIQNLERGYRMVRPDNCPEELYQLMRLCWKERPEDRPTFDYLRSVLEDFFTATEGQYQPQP
Vascular endothelial growth factor receptor 2, sequence (P35968 whole entry): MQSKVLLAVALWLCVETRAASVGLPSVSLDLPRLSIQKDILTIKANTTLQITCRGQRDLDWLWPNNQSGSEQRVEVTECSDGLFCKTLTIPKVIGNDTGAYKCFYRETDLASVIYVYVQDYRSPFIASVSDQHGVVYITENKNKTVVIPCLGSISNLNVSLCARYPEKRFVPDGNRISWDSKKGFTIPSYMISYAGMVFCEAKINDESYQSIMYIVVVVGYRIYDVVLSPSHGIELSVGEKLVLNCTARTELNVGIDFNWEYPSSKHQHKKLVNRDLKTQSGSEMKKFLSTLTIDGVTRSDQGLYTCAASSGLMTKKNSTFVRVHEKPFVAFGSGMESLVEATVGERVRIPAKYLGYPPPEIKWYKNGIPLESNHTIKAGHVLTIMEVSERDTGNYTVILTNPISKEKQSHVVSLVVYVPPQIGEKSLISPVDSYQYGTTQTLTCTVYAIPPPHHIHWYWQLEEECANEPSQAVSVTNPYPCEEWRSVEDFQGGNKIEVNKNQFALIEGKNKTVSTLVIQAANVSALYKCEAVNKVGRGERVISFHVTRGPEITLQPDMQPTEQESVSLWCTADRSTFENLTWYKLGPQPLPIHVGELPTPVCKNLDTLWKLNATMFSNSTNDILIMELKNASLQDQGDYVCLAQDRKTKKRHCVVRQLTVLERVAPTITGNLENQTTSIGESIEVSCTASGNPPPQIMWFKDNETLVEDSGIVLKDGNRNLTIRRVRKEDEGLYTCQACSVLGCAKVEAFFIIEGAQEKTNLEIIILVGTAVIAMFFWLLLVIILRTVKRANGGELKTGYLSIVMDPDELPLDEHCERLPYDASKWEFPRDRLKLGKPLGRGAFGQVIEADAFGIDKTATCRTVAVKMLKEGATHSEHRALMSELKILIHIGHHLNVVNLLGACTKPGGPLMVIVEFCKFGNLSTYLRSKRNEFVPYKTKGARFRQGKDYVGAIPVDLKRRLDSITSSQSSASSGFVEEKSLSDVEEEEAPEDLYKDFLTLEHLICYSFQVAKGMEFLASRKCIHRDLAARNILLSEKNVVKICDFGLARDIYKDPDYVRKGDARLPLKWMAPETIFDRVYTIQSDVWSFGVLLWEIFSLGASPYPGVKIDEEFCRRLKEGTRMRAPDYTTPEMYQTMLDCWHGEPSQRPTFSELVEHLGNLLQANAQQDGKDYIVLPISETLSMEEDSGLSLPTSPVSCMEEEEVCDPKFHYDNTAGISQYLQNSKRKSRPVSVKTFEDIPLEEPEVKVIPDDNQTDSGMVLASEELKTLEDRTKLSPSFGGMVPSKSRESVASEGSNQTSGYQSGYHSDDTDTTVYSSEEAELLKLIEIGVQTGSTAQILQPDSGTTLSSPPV
Angiopoietin-1 receptor, sequence (Q02763 whole entry): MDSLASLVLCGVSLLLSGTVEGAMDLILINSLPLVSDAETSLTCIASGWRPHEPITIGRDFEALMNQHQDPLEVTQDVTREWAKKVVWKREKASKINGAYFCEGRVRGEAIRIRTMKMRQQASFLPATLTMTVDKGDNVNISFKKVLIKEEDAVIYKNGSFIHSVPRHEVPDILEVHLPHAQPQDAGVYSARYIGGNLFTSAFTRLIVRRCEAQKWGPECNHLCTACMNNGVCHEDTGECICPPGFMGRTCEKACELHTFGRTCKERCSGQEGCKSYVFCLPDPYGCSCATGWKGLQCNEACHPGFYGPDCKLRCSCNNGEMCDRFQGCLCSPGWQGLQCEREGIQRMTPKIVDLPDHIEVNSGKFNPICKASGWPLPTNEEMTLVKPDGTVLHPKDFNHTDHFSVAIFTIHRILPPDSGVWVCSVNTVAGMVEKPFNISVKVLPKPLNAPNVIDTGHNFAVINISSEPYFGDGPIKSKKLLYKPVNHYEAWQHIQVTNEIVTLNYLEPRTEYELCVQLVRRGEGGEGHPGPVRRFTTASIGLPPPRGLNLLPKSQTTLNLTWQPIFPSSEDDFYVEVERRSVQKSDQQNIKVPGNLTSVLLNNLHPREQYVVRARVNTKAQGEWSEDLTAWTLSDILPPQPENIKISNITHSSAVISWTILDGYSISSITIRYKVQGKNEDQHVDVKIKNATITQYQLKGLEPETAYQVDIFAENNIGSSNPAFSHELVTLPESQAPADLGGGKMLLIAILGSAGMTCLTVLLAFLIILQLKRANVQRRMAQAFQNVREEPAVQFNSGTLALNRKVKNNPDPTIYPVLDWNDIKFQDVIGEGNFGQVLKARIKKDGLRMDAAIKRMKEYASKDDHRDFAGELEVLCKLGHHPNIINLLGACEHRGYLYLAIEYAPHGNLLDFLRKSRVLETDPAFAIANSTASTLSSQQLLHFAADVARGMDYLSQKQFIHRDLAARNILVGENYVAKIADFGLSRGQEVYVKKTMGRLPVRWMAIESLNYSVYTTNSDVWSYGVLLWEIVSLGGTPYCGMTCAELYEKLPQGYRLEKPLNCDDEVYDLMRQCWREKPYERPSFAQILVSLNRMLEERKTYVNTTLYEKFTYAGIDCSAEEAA
Mitogen-activated protein kinase 14, sequence (Q16539 whole entry): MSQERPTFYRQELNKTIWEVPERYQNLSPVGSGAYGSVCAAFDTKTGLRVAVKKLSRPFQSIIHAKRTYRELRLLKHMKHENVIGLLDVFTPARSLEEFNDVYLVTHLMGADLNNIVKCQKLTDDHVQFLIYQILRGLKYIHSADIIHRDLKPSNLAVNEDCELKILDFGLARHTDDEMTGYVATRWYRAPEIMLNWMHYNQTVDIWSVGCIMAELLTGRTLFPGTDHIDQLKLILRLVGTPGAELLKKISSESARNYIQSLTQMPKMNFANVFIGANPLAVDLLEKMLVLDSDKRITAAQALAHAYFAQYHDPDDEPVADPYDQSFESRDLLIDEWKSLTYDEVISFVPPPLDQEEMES

pIC50 (Angiopoietin-1 receptor) | pIC50 [1] | pIC50 [2] | pIC50 [3] | pIC50 [4] | pIC50 (T-cell) | SMILES
< 4.60 | < 4.60 | 7.08 | 8.62 | 5.18 | – | CNc1ncc(C(=O)Nc2cc(C(=O)Nc3cccc(C(F)(F)F)c3F)ccc2C)c(NC)n1
< 4.60 | < 4.60 | 7.00 | – | < 4.60 | – | COc1nc(NC2CCN(C)CC2)ncc1C(=O)Nc1cc(C(=O)Nc2cccc(C(F)(F)F)c2)ccc1C
< 4.60 | < 4.60 | 7.36 | < 5.00 | < 4.60 | < 5.00 | CNc1ncc(C(=O)Nc2cc(C(=O)Nc3cccc(C(F)(F)F)c3C)ccc2C)c(OC)n1
< 4.60 | < 4.60 | 7.39 | – | < 4.60 | < 5.00 | Cc1ccc(C(=O)Nc2cccc(C(F)(F)F)c2)cc1NC(=O)c1cnc(NCCN2CCOCC2)nc1Oc1ccccc1
< 4.60 | < 4.60 | 7.66 | – | 5.69 | 5.31 | COc1nc(NCCN2CCOCC2)ncc1C(=O)Nc1cc(C(=O)Nc2cccc(C(F)(F)F)c2)ccc1C
8.70 | – | – | – | – | – | Cc1ccc(C(=O)Nc2cccc(C(F)(F)F)c2)cc1-c1ccc2nc(N)ncc2c1
5.46 | 6.48 | 9.22 | 6.07 | 6.59 | 6.97 | COc1nc(Nc2ccc(N3CCN(C)CC3)cc2)ncc1C(=O)Nc1cc(C(=O)Nc2cccc(C(F)(F)F)c2F)ccc1C
< 4.60 | < 4.60 | 7.28 | 5.57 | 5.08 | < 5.00 | CNc1ncc(C(=O)Nc2cc(C(=O)Nc3cccc(C(F)(F)F)c3)ccc2C)c(OC)n1
< 4.60 | < 4.60 | 7.35 | – | < 4.60 | – | COc1nc(NCCCCN(C)C)ncc1C(=O)Nc1cc(C(=O)Nc2cccc(C(F)(F)F)c2C)ccc1C

SMILES | pIC50 (Angiopoietin-1 receptor) | pIC50 [1] | pIC50 [2] | pIC50 [3] | pIC50 [4] | pIC50 (T-cell)
CNc1ncc(C(=O)Nc2cc(C(=O)Nc3cccc(C(F)(F)F)c3F)ccc2C)c(OC)n1 | < 4.60 | < 4.60 | 8.15 | 6.60 | < 4.60 | < 5.00
COc1nc(NCCCN2CCN(C)CC2)ncc1C(=O)Nc1cc(C(=O)Nc2cccc(C(F)(F)F)c2C)ccc1C | < 4.60 | < 4.60 | 7.72 | – | < 4.60 | 5.57
CNc1ncc(C(=O)Nc2cc(C(=O)Nc3cccc(C(F)(F)F)c3)ccc2C)c(Oc2ccccc2)n1 | < 4.60 | < 4.60 | 7.60 | – | < 4.60 | < 5.00
